Assay results published in the supplement of paper PMC12076712.
Each block holds one compound with its values, some of them ahead of it.

Key:
Test in all cases: pIC50, kinobeads binding competition
SRPK1 = SRPK1 (UniProt Q96SB4); settings: cell material: Jurkat cells
Outline: (§1)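 Live Jurkat cells were treated with nine compound concentrations (top 30 μM, 1:4 steps) or DMSO for 60 min at 37 °C before lysis. Alternatively, Jurkat lysate or a 1:1:1:1 HEK293/K-562/HepG2/placenta lysate mix was incubated with nine concentrations (top 30 μM, 1:5 steps) for 60 min at 4 °C. Kinobeads-bound proteins were digested and quantified by TMT10 LC-MS/MS. pIC50 came from logistic dose-response fits (R drc package) of fold changes versus DMSO, in biological duplicates.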

RPS6KA6 = RPS6KA6 (UniProt Q9UK32); settings: cell material: Lysate mix
Outline: as §1

CLK3 = CLK3 (UniProt P49761)
Outline: as §1

UniProt Q8NEB9 = molecular target: UniProt Q8NEB9
Outline: as §1

TNIK = TNIK (UniProt Q9UKE5)
Outline: as §1

PRKACB = PRKACB (UniProt P22694)
Outline: as §1

IRAK3 = molecular target: T1, IRAK3 (UniProt Q9Y616); settings: cell material: Lysate mix
T1 sequence (whole entry): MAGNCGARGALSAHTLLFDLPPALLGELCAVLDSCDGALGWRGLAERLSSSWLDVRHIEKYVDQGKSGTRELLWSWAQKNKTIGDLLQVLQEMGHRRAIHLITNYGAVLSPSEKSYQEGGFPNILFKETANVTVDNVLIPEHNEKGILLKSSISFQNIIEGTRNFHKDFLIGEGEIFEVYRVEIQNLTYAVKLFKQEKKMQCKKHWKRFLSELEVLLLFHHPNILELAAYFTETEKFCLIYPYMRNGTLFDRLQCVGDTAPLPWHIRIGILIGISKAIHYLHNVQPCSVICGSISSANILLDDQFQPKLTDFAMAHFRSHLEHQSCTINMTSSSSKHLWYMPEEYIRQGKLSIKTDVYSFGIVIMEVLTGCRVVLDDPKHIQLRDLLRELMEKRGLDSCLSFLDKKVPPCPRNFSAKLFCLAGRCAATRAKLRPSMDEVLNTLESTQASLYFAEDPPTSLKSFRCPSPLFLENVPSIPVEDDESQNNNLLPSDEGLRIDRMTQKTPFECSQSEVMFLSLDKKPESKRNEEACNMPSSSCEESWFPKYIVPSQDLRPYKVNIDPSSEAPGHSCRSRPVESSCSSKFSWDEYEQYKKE
Outline: as §1

UniProt Q02750 = molecular target: UniProt Q02750
Outline: as §1

UniProt P45984 = molecular target: UniProt P45984
Outline: as §1

KIT = KIT (UniProt P10721); settings: cell material: Lysate mix
Outline: as §1

UniProt Q00537 = molecular target: UniProt Q00537
Outline: as §1

AXL = AXL (UniProt P30530); settings: cell material: Lysate mix
Outline: as §1

UniProt Q16512 = molecular target: UniProt Q16512
Outline: as §1

AKT2 = AKT2 (UniProt P31751)
Outline: as §1

PRPF4B = PRPF4B (UniProt Q13523); settings: cell material: Lysate mix
Outline: as §1

UniProt Q9Y2H1 = molecular target: UniProt Q9Y2H1
Outline: as §1

UniProt P16234 = settings: cell material: Lysate mix
Outline: as §1

RPS6KA4 = RPS6KA4 (UniProt O75676)
Outline: as §1

UniProt O95747 = molecular target: UniProt O95747
Outline: as §1

CDC7 = CDC7 (UniProt O00311)
Outline: as §1

MET = MET (UniProt P08581); settings: cell material: Lysate mix
Outline: as §1

UniProt Q15303 = settings: cell material: Lysate mix
Outline: as §1

UniProt Q04912 = settings: cell material: Lysate mix
Outline: as §1

CASK = molecular target: T2, CASK (UniProt O14936); settings: cell material: Lysate mix
T2 sequence (whole entry): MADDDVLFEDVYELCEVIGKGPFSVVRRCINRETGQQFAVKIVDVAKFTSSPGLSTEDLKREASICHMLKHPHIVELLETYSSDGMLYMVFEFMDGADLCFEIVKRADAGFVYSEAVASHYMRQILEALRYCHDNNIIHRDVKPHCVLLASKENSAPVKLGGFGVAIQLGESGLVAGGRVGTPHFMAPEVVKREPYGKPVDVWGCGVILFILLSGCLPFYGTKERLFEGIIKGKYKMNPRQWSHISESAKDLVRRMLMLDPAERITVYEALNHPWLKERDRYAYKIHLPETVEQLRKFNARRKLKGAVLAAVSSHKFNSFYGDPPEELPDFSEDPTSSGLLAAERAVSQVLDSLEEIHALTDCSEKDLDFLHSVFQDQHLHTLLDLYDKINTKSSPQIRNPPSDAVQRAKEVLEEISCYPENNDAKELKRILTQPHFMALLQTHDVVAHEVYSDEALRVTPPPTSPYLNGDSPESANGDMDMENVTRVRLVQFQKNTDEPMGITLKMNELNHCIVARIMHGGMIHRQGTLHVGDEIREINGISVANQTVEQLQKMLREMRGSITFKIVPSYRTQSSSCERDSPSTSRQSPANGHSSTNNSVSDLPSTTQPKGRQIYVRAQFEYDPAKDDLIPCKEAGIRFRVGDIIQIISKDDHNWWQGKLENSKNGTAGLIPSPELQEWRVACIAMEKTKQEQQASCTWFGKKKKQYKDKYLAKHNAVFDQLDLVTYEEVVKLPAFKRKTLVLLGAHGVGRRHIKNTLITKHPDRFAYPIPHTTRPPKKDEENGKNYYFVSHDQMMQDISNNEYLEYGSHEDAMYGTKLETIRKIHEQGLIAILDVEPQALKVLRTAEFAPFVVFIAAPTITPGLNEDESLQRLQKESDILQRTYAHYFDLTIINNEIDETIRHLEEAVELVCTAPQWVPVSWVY
Outline: as §1

Chain of UniProt Q9Y2H1 (Q9Y2H1 whole entry, looked up): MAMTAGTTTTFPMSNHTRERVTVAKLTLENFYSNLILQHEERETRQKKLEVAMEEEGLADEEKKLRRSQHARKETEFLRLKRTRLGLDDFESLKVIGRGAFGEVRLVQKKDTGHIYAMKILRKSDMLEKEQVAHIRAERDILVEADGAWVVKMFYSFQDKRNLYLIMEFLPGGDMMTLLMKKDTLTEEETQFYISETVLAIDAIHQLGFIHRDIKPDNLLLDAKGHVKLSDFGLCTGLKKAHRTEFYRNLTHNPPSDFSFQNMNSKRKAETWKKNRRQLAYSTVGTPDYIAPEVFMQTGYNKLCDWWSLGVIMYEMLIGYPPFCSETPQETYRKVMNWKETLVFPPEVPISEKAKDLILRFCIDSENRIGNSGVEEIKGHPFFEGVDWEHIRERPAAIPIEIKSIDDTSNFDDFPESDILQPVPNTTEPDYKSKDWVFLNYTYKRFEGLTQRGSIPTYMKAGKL
Chain of UniProt P45984 (P45984 whole entry, looked up): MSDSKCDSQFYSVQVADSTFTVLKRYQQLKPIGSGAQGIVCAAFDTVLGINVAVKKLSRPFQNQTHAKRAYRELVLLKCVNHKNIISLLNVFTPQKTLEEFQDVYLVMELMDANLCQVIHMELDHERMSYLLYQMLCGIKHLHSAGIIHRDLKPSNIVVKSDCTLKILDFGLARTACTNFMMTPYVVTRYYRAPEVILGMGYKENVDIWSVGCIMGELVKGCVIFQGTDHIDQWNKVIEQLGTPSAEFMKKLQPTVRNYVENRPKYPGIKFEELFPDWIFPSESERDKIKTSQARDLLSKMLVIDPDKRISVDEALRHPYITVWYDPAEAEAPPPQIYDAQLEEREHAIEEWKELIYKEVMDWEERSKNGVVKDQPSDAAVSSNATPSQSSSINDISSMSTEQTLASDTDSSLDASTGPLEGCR
Chain of RPS6KA4 (O75676 whole entry, looked up): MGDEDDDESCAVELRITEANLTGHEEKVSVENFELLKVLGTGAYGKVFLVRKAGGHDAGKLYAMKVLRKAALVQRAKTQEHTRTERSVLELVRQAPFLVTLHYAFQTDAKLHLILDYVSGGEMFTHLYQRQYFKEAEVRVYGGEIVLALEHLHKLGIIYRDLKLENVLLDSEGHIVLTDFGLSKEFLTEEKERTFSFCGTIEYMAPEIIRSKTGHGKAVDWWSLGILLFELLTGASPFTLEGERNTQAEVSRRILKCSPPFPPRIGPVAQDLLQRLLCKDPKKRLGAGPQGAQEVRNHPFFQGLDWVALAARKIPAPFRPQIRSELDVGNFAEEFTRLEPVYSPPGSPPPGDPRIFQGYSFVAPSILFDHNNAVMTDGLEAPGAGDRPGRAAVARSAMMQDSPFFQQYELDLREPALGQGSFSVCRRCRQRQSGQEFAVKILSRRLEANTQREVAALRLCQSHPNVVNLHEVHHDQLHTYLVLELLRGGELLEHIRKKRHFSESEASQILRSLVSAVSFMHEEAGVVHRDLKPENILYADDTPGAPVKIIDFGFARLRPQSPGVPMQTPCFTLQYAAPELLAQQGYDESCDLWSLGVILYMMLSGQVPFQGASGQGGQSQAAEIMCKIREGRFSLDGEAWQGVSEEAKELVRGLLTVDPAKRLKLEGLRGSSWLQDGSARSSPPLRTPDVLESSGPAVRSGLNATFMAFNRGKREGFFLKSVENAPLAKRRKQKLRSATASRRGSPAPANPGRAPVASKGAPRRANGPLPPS
Chain of KIT (P10721 whole entry): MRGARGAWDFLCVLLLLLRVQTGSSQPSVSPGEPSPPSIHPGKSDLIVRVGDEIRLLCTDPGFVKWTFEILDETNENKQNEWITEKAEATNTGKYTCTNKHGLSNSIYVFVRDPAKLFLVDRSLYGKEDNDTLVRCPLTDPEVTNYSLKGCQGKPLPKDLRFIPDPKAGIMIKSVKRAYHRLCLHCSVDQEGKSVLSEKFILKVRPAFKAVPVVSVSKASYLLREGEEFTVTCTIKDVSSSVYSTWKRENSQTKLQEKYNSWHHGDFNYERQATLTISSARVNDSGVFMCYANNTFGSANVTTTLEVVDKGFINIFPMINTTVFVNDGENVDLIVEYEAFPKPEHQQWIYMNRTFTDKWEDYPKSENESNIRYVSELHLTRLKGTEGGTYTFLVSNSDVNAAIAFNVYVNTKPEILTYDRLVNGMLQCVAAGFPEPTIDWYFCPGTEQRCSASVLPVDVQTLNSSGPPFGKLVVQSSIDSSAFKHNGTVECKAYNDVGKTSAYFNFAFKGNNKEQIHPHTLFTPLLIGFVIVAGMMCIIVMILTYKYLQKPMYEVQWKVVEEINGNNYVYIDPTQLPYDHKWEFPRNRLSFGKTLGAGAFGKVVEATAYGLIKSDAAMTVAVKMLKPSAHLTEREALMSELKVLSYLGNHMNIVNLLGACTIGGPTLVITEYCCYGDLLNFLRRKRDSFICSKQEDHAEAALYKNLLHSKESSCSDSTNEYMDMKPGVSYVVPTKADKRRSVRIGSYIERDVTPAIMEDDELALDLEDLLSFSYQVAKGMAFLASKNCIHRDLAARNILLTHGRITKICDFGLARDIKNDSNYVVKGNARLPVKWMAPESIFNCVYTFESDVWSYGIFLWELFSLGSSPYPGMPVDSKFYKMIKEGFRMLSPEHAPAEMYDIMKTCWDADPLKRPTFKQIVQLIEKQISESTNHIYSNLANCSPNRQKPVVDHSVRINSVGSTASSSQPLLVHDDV
Chain of UniProt Q02750 (Q02750 whole entry): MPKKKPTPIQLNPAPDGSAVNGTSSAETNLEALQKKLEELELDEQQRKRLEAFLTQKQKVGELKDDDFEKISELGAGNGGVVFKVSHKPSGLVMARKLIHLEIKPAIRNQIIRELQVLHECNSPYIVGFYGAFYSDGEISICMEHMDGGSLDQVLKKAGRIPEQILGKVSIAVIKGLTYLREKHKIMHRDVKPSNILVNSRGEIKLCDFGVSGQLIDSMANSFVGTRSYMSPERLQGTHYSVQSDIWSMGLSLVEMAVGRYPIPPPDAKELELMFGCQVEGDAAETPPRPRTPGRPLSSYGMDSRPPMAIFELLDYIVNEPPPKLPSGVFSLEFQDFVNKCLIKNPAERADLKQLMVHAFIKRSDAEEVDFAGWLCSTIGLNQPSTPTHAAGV
Chain of CLK3 (P49761 whole entry, looked up): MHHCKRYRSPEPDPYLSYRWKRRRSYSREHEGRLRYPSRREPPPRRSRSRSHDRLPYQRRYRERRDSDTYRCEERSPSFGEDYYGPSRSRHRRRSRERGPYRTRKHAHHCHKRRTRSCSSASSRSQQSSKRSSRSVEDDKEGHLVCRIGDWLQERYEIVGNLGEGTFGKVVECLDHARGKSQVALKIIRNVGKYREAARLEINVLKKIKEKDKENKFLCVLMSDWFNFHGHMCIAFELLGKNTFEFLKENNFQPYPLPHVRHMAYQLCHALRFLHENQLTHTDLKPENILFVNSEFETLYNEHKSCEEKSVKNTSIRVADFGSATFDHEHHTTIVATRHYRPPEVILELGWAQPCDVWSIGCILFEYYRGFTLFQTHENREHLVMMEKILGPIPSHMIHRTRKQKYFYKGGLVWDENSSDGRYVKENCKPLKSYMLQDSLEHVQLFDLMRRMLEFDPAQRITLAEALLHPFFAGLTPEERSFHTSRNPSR
Chain of UniProt Q00537 (Q00537 whole entry, looked up): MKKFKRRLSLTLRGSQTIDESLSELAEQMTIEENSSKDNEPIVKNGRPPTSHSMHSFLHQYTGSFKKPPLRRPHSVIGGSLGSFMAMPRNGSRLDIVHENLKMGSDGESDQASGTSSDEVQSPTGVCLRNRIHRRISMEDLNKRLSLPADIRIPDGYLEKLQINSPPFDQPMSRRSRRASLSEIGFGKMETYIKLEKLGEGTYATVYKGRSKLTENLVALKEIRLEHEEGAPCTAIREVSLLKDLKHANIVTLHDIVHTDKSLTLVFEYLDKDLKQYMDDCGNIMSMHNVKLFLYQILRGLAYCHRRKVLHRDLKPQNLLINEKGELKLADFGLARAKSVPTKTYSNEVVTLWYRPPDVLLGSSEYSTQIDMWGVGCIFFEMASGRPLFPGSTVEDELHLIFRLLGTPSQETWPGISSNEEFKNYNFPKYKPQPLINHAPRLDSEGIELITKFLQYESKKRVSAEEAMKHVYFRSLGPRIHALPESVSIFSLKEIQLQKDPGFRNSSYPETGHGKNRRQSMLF
Chain of UniProt Q16512 (Q16512 whole entry, looked up): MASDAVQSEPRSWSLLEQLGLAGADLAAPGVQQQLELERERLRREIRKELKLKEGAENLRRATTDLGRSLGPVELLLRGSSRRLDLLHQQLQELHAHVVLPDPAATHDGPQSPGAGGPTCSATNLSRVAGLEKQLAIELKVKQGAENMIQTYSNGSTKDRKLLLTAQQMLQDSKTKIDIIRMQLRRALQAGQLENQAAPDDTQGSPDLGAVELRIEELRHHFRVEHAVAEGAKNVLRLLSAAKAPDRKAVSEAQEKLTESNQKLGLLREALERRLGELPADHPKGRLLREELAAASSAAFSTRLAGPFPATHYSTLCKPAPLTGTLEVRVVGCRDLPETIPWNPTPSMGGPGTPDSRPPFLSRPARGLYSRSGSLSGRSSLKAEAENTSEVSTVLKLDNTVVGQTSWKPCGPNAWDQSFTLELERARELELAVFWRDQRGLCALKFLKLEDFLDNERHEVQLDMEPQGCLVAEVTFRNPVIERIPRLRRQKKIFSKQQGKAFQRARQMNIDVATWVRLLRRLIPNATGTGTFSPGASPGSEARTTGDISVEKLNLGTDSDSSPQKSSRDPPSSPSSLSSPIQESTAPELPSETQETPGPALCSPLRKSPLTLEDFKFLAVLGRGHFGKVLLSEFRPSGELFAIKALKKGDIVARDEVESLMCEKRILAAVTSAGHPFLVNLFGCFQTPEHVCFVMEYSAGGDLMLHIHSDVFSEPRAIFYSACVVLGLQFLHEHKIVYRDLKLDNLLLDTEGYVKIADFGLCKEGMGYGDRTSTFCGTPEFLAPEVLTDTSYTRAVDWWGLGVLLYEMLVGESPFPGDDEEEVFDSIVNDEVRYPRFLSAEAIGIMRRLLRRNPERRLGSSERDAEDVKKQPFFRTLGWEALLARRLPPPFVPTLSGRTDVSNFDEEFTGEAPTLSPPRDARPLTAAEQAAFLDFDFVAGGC

Compound: C#CCNC(=O)c1cc(Nc2cc(C3CC3)[nH]n2)nc(N2CCN(Cc3ccc(S(=O)(=O)F)cc3)CC2)n1
pIC50 (SRPK1): < 4.52
pIC50 (RPS6KA6): 4.94
pIC50 (CLK3; cell material: Jurkat lysate): < 4.52
pIC50 (CLK3; cell material: Lysate mix): 5.15
pIC50 (UniProt Q8NEB9; cell material: Jurkat cells): 4.87
pIC50 (TNIK; cell material: Jurkat lysate): < 4.52
pIC50 (TNIK; cell material: Lysate mix): 5.27
pIC50 (PRKACB; cell material: Jurkat lysate): < 4.52
pIC50 (IRAK3): < 4.52
pIC50 (UniProt Q02750; cell material: Jurkat cells): 5.86
pIC50 (UniProt Q02750; cell material: Jurkat lysate): < 4.52
pIC50 (UniProt Q02750; cell material: Lysate mix): 5.59
pIC50 (UniProt P45984; cell material: Jurkat cells): 5.92
pIC50 (UniProt P45984; cell material: Jurkat lysate): 5.22
pIC50 (UniProt P45984; cell material: Lysate mix): 5.72
pIC50 (KIT): < 4.52
pIC50 (UniProt Q00537; cell material: Jurkat cells): 6.39
pIC50 (UniProt Q00537; cell material: Jurkat lysate): 5.11
pIC50 (UniProt Q00537; cell material: Lysate mix): 5.7
pIC50 (AXL): < 4.52
pIC50 (UniProt Q16512; cell material: Jurkat cells): 5.36
pIC50 (UniProt Q16512; cell material: Jurkat lysate): < 4.52
pIC50 (UniProt Q16512; cell material: Lysate mix): < 4.52
pIC50 (AKT2; cell material: Jurkat cells): 5.74
pIC50 (PRPF4B): < 4.52
pIC50 (UniProt Q9Y2H1; cell material: Jurkat cells): 6.28
pIC50 (UniProt Q9Y2H1; cell material: Jurkat lysate): 5.56
pIC50 (UniProt P16234): < 4.52
pIC50 (RPS6KA4; cell material: Jurkat cells): 5.84
pIC50 (RPS6KA4; cell material: Jurkat lysate): 4.83
pIC50 (RPS6KA4; cell material: Lysate mix): 5.56
pIC50 (UniProt O95747; cell material: Jurkat cells): 6.16
pIC50 (UniProt O95747; cell material: Jurkat lysate): 5.4
pIC50 (UniProt O95747; cell material: Lysate mix): 5.54
pIC50 (CDC7; cell material: Jurkat cells): 5.68

pIC50 (CLK3; cell material: Lysate mix): < 4.52
pIC50 (TNIK; cell material: Lysate mix): < 4.52
pIC50 (PRKACB; cell material: Lysate mix): < 4.52
pIC50 (MET): < 4.52
pIC50 (UniProt P45984; cell material: Lysate mix): 5.2
pIC50 (KIT): < 4.52
pIC50 (UniProt Q15303): 5.04
pIC50 (AXL): 4.74
pIC50 (UniProt Q16512; cell material: Lysate mix): < 4.52
pIC50 (UniProt Q9Y2H1; cell material: Lysate mix): < 4.52
pIC50 (UniProt Q04912): 4.54
pIC50 (CASK): < 4.52
pIC50 (UniProt O95747; cell material: Lysate mix): < 4.52
Compound: CCNC(=O)c1cc(Nc2cc(C)[nH]n2)nc(N2CCN(Cc3ccc(S(=O)(=O)F)cc3)CC2)n1

pIC50 (RPS6KA6): 4.87
pIC50 (CLK3; cell material: Lysate mix): 4.85
pIC50 (UniProt Q8NEB9; cell material: Lysate mix): < 4.52
pIC50 (MET): 4.92
pIC50 (UniProt Q02750; cell material: Lysate mix): 5.78
pIC50 (UniProt P45984; cell material: Lysate mix): 5.62
pIC50 (KIT): < 4.52
pIC50 (UniProt Q00537; cell material: Lysate mix): 5.52
pIC50 (UniProt Q15303): 4.96
pIC50 (AKT2; cell material: Lysate mix): < 4.52
pIC50 (PRPF4B): 5.12
pIC50 (UniProt P16234): < 4.52
pIC50 (UniProt Q04912): < 4.52
pIC50 (RPS6KA4; cell material: Lysate mix): 5.34
pIC50 (CASK): < 4.52
pIC50 (UniProt O95747; cell material: Lysate mix): 5.24
pIC50 (CDC7; cell material: Lysate mix): 4.57
Compound: CCNC(=O)c1cc(Nc2cc(C3CC3)[nH]n2)nc(N2CCN(Cc3ccc(S(=O)(=O)F)cc3)CC2)n1
